This is an account of results in US20180016304A1, “SELF-ASSEMBLING ULTRASHORT ALIPHATIC DEPSIPEPTIDES FOR BIOMEDICAL APPLICATIONS” (Agency for Science, Technology and Research, priority 2015, published 2018).

Series [1] concerns human mesenchymal stem cells (hMSCs). The series is described as follows: Cytocompatibility, WST-1 cell metabolic activity assay. The following applies: for cytocompatibility / tolerance: fragments particularly if the acidity was neutralized. The class given is cell-based. On the procedure:
Human mesenchymal stem cells, hMSCs, were obtained from Lonza (Basel, Switzerland) and cultured in MSC growth medium (MSCGM) with 5% fetal bovine serum, 2% L-glutamine and 0.1% penicillin-streptomycin (Lonza). The cell metabolic activity was measured with the Cell Proliferation Reagent WST-1 assay (Roche Diagnostics, Mannheim, Germany). Briefly, 5000 hMSC cells were seeded in each well and media containing the sample was added to the desired concentration (n=6). After incubation for 72 hours at 37° C., the media was aspirated and media containing 10% WST-1 reagent added for 2 hours. The absorbance at 450 nm was measured subtracting the absorbance at 600 nm. The absorbance readings were further normalized against cells cultured in media containing an equivalent volume of PBS (i.e. 100% cell survival) to determine the percentage cell viability. Cells cultured with an equivalent volume of ethanol were used as a negative control (i.e. 100% cell death).
In order to determine depsipeptide cytotoxicity and effect on cell proliferation, human mesenchymal stem cells (hMSCs) were incubated with various concentrations of the depsipeptide and their metabolic activity and viability was tested after 3 days. Cell viability decreased with increasing depsipeptide concentration. […] To address concerns that the cytotoxicity could be attributed to the degradation products following hydrolysis of the ester bond, the possible degradation products, the peptide Ac-ILV and depsipeptide HO-aGK-NH2, were also evaluated.
(In general: Tetrazolium dyes change colour on reduction, which living cells bring about.)

For series [2] the following is noted: 2 mg/mL in PBS. On the procedure:
In order to test the degradation ability of the depsipeptide, 2 mg/mL was dissolved in PBS puffer at pH 5.7, 7.3 and 8.5. All samples were incubated at 37° C. and analysed by HPLC-MS.
In order to characterize the degradation products of the depsipeptide Ac-ILV-OH and HO-aGK-NH2 were synthesized and the retention time was determined by HPLC-MS.

Series [3] is described as follows: Minimum gelation concentration / hydrogel formation. The class given is physicochemical. On the procedure: In order to determine the minimum gelation concentration in water, the depsipeptide was dissolved in MilliQ water.
Liskamp reported depsipetides based on the amylin (20-29) structure.

Where [4] appears, read: MilliQ water, depsipeptide sample left at room temperature.

Read-outs that look alike come from different tables or passages of the source. Where a SMILES comes first, the peptide text is derived from it.

Regarding `CC[C@H](C)[C@H](NC(C)=O)C(=O)N[C@@H](CC(C)C)C(=O)N[C@H](C(=O)O)C(C)C` [Ac-ILV] (Ac-Ile-Leu-Val-OH), the cytocompatibility / tolerance result in series [1] (3 days) is “extremely well tolerated”.
For `CC[C@H](C)[C@H](NC(C)=O)C(=O)N[C@@H](CC(C)C)C(=O)N[C@H](C(=O)OC(C)C(=O)NCC(=O)N[C@@H](CCCCN)C(N)=O)C(C)C` (some centres unmarked) [Ac-ILVaGK-NH2, Acetylated isoleucine-leucine-valine-lactic acid-glycine-lysine] (HELM PEPTIDE1{[ac].I.L.V.[CC(O[*:1])C(=O)[*:2]].G.K.[am]}$$$$V2.0), the “IC50 (cell viability)” value in series [1] (3 days (72 hours) incubation, WST-1) is “approximately 15 mg/mL”. Moreover, the “stability (degradation)” value in series [2] (pH 5.7, 37° C., compared with pH 7.3 and 8.5) is “most”; in series [2] (pH 8.5, 37° C., compared with pH 5.7 and 7.3) it was “least stable”. In series [3] (100 mg/mL dissolved in 90% water, 10% 10xPBS added), the hydrogel formation entry is listed as “instantaneous hydrogel formation”. Besides, the results for the minimum gelation concentration in series [3] (setting [4]) and in series [3] (with PBS buffer added (1x PBS)) were 100 mg/mL and 60 mg/mL, respectively. Moreover, the “minimum gelation concentration relative to parent peptide Ac-IK6-NH2” value in series [3] (in water as well as in 1xPBS buffer) was “about 10 times”.
As to `CC(O)C(=O)NCC(=O)N[C@@H](CCCCN)C(N)=O` (some centres unmarked) [HO-aGK-NH2] (HELM PEPTIDE1{[CC(O)C(=O)[*:2]].G.K.[am]}$$$$V2.0), the “concentration at which significant cytotoxicity was demonstrated” value in series [1] (3 days, WST-1) is above 10000 µg/mL. In addition, the cytocompatibility / tolerance result in series [1] (3 days) is “extremely well tolerated”.
On to “Ac-IK6-NH2: parent ultrashort self-assembling peptide Ac-ILVAGK-NH2, without α-hydroxy acid [reference compound]”, for which the minimum gelation concentration in series [3] (setting [4]) is 10 mg/mL.
